Reference: ChEMBL document CHEMBL1687767, “New antiseptic peptides to protect against endotoxin-mediated shock” (Antimicrob Agents Chemother, 2010)
Converted amounts (≈) assume the structure as drawn. The source made the active and inactive calls. The rule behind the calls is not given here. Residues, ends and D or L forms follow the SMILES beside them.

Tests used:
HeLa [1] = experiment: Cytotoxicity against human HeLa cells at 10 ug/ml by MTT assay; format: cell-based
[2] = Cytotoxicity against human LS 174T cells assessed as effect on respiration rate at 10 ug/ml by Chip-based Bionas system; format: cell-based; conditions: ls174t
Mus musculus [3] = experiment: Antisepsis activity in Salmonella enterica serovar Minnesota R60 LPS-induced C57BL/6 mouse lethal endotoxin shock model assessed as mouse survival at 2.5 ug, ip administered immediately after LPS challenge measured 48 hrs post LPS challenge; format: functional, organism-based
HaCaT [4] = experiment: Cytotoxicity against human HaCaT cells at 100 ug/ml by MTT assay; format: cell-based
Homo sapiens [5] = organism: Homo sapiens; experiment: Antiinflammatory activity in human MNC assessed as inhibition of LPS-induced TNFalpha production at compound: LPS ratio of 100:1 weight percent by ELISA; format: functional
[6] = Cytotoxicity against human LS 174T cells assessed as effect on respiration rate at 100 ug/ml by Chip-based Bionas system; format: cell-based; conditions: ls174t
HeLa [7] = experiment: Cytotoxicity against human HeLa cells at 100 ug/ml by MTT assay; format: cell-based
Jurkat [8] = experiment: Cytotoxicity against human Jurkat cells assessed as effect on respiration rate at 10 ug/ml by Chip-based Bionas system; format: cell-based
Jurkat [9] = experiment: Cytotoxicity against human Jurkat cells assessed as effect on respiration rate at 100 ug/ml by Chip-based Bionas system; format: cell-based
[10] = Toxicity in human RBC assessed as hemolysis upto 25 ug/ml; format: cell-based; conditions: erythrocyte
HaCaT [11] = experiment: Cytotoxicity against human HaCaT cells at 10 ug/ml by MTT assay; format: cell-based
PBMC [12] = experiment: Cytotoxicity against human PBMC cells assessed as effect on respiration rate at 10 ug/ml by Chip-based Bionas system; format: cell-based
HepG2 [13] = experiment: Cytotoxicity against human HepG2 cells assessed as effect on respiration rate at 10 ug/ml by Chip-based Bionas system; format: cell-based
Lipopolysaccharide (LPS) = experiment: Binding affinity to Salmonella enterica serovar Minnesota R60 LPS at [compound]/[LPS] ratio of 0.3 by isothermal titration calorimetry; conditions: Salmonella enterica subsp. enterica serovar Minnesota
PBMC [14] = experiment: Cytotoxicity against human PBMC cells assessed as effect on respiration rate at 100 ug/ml by Chip-based Bionas system; format: cell-based
Mus musculus [15] = experiment: Antisepsis activity in Salmonella enterica serovar Minnesota R60 LPS-induced C57BL/6 mouse lethal endotoxin shock model assessed as mouse survival at 12.5 ug, ip administered immediately after LPS challenge; format: functional, organism-based
HepG2 [16] = experiment: Cytotoxicity against human HepG2 cells assessed as effect on respiration rate at 100 ug/ml by Chip-based Bionas system; format: cell-based
Pseudomonas aeruginosa [17] = experiment: Antimicrobial activity against Pseudomonas aeruginosa CUN 4158-02 by broth microdilution method; format: functional
[18] = tested on: Bordetella bronchiseptica; experiment: Antimicrobial activity against Bordetella bronchiseptica CUN11844-99 by broth microdilution method; format: functional
Staphylococcus aureus [19] = experiment: Antimicrobial activity against methicillin-resistant Staphylococcus aureus CUN 3792-99 by broth microdilution method; format: functional
Acinetobacter baumannii = experiment: Antimicrobial activity against […] Acinetobacter baumannii ATCC 19606 by broth microdilution method; format: functional
[20] = tested on: Stenotrophomonas maltophilia; experiment: Antimicrobial activity against […] Stenotrophomonas maltophilia CUN 3998-00 by broth microdilution method; format: functional
Mus musculus [21] = experiment: Antisepsis activity in Pseudomonas aeruginosa LPS-induced C57BL/6 mouse lethal endotoxin shock model assessed as mouse survival at 12.5 ug, ip administered immediately after LPS challenge; format: functional, organism-based
Staphylococcus aureus [22] = experiment: Antimicrobial activity against methicillin-resistant Staphylococcus aureus ATCC 43300 by broth microdilution method; format: functional
Pseudomonas aeruginosa [23] = experiment: Antimicrobial activity against Pseudomonas aeruginosa ATCC 27853 by broth microdilution method; format: functional
Staphylococcus aureus [24] = experiment: Antimicrobial activity against Staphylococcus aureus ATCC 25923 by broth microdilution method; format: functional
Escherichia coli = experiment: Antimicrobial activity against Escherichia coli ATCC 25922 by broth microdilution method; format: functional
Homo sapiens [25] = organism: Homo sapiens; experiment: Antiinflammatory activity in human MNC assessed as inhibition of LPS-induced TNFalpha production at compound: LPS ratio of 10:1 weight percent by ELISA; format: functional
Homo sapiens [26] = organism: Homo sapiens; experiment: Antiinflammatory activity in human MNC assessed as inhibition of LPS-induced TNFalpha production at compound: LPS ratio of <10:1 weight percent by ELISA; format: functional

With `N=C(N)NCCC[C@H](NC(=O)[C@H](Cc1ccc(O)cc1)NC(=O)[C@H](CCCCN)NC(=O)[C@H](CCCCN)NC(=O)[C@H](CS)NC(=O)CN)C(=O)N[C@@H](CCCNC(=N)N)C(=O)N[C@@H](Cc1ccccc1)C(=O)N[C@@H](CCCNC(=N)N)C(=O)N[C@@H](Cc1c[nH]c2ccccc12)C(=O)N[C@@H](CCCCN)C(=O)N[C@@H](Cc1ccccc1)C(=O)N[C@@H](CCCCN)C(=O)NCC(=O)N[C@@H](CCCCN)C(=O)N[C@@H](Cc1ccccc1)C(=O)N[C@@H](Cc1c[nH]c2ccccc12)C(=O)N[C@@H](Cc1ccccc1)C(=O)N[C@@H](Cc1c[nH]c2ccccc12)C(=O)NCC(=O)O` the Activity (HeLa [1]) was “Non-toxic”, the Activity [2] was “Non-toxic” and the Activity (Mus musculus [3]) was “Active”. For the same compound, the Activity (HaCaT [4]) was “Toxic”, the inhibition (Homo sapiens [5]) was “Active” and the Activity [6] was “Toxic”. The Activity (HeLa [7]) was “Toxic”, the Activity (Jurkat [8]) was “Non-toxic” and the Activity (Jurkat [9]) was “Toxic”. For the same compound, the Activity [10] was “Non-toxic”, the Activity (HaCaT [11]) was “Non-toxic” and the Activity (PBMC [12]) was “Non-toxic”. For the same compound, the Activity (HepG2 [13]) was “Non-toxic”, the Activity (Lipopolysaccharide (LPS)) was “Active” and the Activity (PBMC [14]) was “Toxic”. The Activity (Mus musculus [15]) was “Active” and the Activity (HepG2 [16]) was “Toxic”.
In the case of `N=C(N)NCCC[C@H](NC(=O)CNC(=O)[C@H](CCCCN)NC(=O)[C@H](CCCNC(=N)N)NC(=O)[C@H](Cc1ccccc1)NC(=O)[C@H](CCCCN)NC(=O)[C@H](Cc1c[nH]c2ccccc12)NC(=O)[C@H](CCCNC(=N)N)NC(=O)[C@H](Cc1ccccc1)NC(=O)[C@H](CCCNC(=N)N)NC(=O)[C@H](CCCNC(=N)N)NC(=O)[C@H](Cc1ccc(O)cc1)NC(=O)[C@H](CCCCN)NC(=O)[C@H](CCCCN)NC(=O)CN)C(=O)N[C@@H](Cc1ccccc1)C(=O)N[C@@H](Cc1c[nH]c2ccccc12)C(=O)N[C@@H](Cc1ccccc1)C(=O)N[C@@H](Cc1c[nH]c2ccccc12)C(=O)NCC(=O)O` (H-GKKYRRFRWKFRKGRFWFWG-OH), the inhibition (Homo sapiens [5]) is reported as “Active”, the MIC (Pseudomonas aeruginosa [17]) is reported as 32 µg/mL (≈ 11.5 µM) and the MIC [18] is reported as 4 µg/mL (≈ 1.43 µM). The MIC (Staphylococcus aureus [19]) was 16 µg/mL (≈ 5.73 µM), the MIC (Acinetobacter baumannii) was 16 µg/mL (≈ 5.73 µM) and the MIC [20] was 64 µg/mL (≈ 22.9 µM). For the same compound, the Activity (Mus musculus [21]) was “inactive”, the MIC (Staphylococcus aureus [22]) was 16 µg/mL (≈ 5.73 µM) and the MIC (Pseudomonas aeruginosa [23]) was 16 µg/mL (≈ 5.73 µM). For the same compound, the MIC (Staphylococcus aureus [24]) was 16 µg/mL (≈ 5.73 µM) and the MIC (Escherichia coli) was 16 µg/mL (≈ 5.73 µM).
In the case of `N=C(N)NCCC[C@H](NC(=O)CNC(=O)[C@H](CCCCN)NC(=O)[C@H](Cc1ccccc1)NC(=O)[C@H](CCCCN)NC(=O)[C@H](Cc1c[nH]c2ccccc12)NC(=O)[C@H](CCCNC(=N)N)NC(=O)[C@H](Cc1ccccc1)NC(=O)[C@H](CCCCN)NC(=O)[C@H](CCCCN)NC(=O)[C@H](Cc1ccc(O)cc1)NC(=O)[C@H](CCCNC(=N)N)NC(=O)[C@H](CCCNC(=N)N)NC(=O)CN)C(=O)N[C@@H](Cc1c[nH]c2ccccc12)C(=O)N[C@@H](Cc1ccccc1)C(=O)N[C@@H](Cc1c[nH]c2ccccc12)C(=O)N[C@@H](Cc1ccccc1)C(=O)NCC(=O)O` (H-GRRYKKFRWKFKGRWFWFG-OH), the inhibition (Homo sapiens [5]) is reported as “Active”, the MIC (Pseudomonas aeruginosa [17]) is reported as 32 µg/mL (≈ 12.1 µM) and the Activity [10] is reported as “Non-toxic”. It also gave an MIC [18] of 128 µg/mL (≈ 48.5 µM), an MIC (Staphylococcus aureus [19]) of 8 µg/mL (≈ 3.03 µM) and an MIC (Acinetobacter baumannii) of 16 µg/mL (≈ 6.07 µM). For the same compound, the MIC [20] was 32 µg/mL (≈ 12.1 µM), the Activity (Mus musculus [21]) was “inactive” and the MIC (Staphylococcus aureus [22]) was 8 µg/mL (≈ 3.03 µM). It also gave an MIC (Pseudomonas aeruginosa [23]) of 16 µg/mL (≈ 6.07 µM), an MIC (Staphylococcus aureus [24]) of 8 µg/mL (≈ 3.03 µM) and an MIC (Escherichia coli) of 16 µg/mL (≈ 6.07 µM).
For POLYMYXIN B, the inhibition (Homo sapiens [25]) was “Active”, the Activity (Mus musculus [21]) was “Active” and the Activity (Mus musculus [15]) was “Active”. The inhibition (Homo sapiens [26]) was “Active”.
